We go through 1 compound from patent US11149028B2, “Methods for treating melanoma using small molecules” (NOVA SOUTHEASTERN UNIVERSITY, priority 2016, dated 2021).

In assay [1] the test system is hnRNP A2/B1. Nature of the assay: DARTS with western blot. The assay is classed as binding, human. Conditions: WM266-4 lysates. From the text:
(§1) (FIG. 26A, DARTS workflow). Proteins that bind the lead present as bands of differential intensity on SDS-PAGE and are identified using proteomic techniques. […] Bands from non-treated control and sample treated with 2155-14 were excised, trypsinized, and run on LC/MS/MS. […] In addition to lamin A/C, lamin B2, transketolase (TKT), and cytoskeleton-associated protein 4 (CKAP4) were also identified as possible targets (Table 7 shown in FIG. 27). The exclusive unique peptide counts were too close to make the identification of one over the other with confidence.
(§2) WM266-4 melanoma cell lysates were prepared using a routine protocol with commercially available M-PER buffer supplemented with protease and phosphatase inhibitors. Lysates were split into control and compound test portions, and DMSO and 2155-14 were added to the respective lysate portions and incubated at RT for 1 h to allow for 2155-14 binding to its target(s). Pronase dilutions (1:100. 1:300, 1:1000. 1:3000 and 1:10000, Roche #10165921001) were prepared from 10 mg/mL stock. Lysates were split into 5 aliquots, and pronase dilutions were added to lysate aliquots and incubated at RT for 30 min. […]
(§3) Each sample was analyzed by liquid-chromatography-tandem MS (LC-MS/MS) using an EASY-nLC 1000 system coupled to a Q Exactive mass spectrometer (Thermo Fisher Scientific). […]
(In general: In western blotting, separated proteins are transferred to a membrane and probed.)

The subject of assay [2] is hnRNP H2. Nature of the assay: DARTS with western blot. The class given is binding, human. To be noted: WM266-4 lysates.
Text: as §1, §2, §3

For assay [3], the target named is T1, DDX1 (Homo sapiens, UniProt Q92499).
T1 construct: WM-266-4 and M14 cells were sonicated in RIPA lysis buffer; endogenous in cells; host or cells: WM266-4 (and M14) melanoma cells and lysates
T1 sequence (Q92499 whole entry): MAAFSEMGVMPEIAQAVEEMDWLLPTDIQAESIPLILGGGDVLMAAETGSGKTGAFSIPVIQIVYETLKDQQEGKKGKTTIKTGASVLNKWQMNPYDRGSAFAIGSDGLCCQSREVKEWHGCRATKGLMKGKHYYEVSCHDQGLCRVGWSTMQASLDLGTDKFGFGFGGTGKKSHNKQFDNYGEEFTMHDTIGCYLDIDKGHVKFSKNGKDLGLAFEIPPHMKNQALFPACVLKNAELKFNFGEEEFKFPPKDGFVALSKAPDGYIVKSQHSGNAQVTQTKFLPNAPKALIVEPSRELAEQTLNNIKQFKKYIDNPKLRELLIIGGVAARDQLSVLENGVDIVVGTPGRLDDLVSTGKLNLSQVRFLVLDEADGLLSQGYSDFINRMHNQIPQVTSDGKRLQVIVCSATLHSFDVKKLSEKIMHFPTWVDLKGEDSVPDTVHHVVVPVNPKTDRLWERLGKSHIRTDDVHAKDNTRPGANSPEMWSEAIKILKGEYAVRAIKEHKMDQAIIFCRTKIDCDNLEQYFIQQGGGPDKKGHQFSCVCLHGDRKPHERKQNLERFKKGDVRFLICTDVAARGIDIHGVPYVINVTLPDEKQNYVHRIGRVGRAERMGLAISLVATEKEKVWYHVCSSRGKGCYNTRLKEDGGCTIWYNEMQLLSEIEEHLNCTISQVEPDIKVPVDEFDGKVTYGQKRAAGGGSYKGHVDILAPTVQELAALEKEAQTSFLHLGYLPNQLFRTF
Description: DARTS with western blot. The class given is binding. Conditions: WM266-4 lysates.
Text: as §1, §2, §3

The test system of assay [4] is lamin A/C. Description: DARTS (drug affinity responsive target stability). The class given is binding, human.
Text: as §1, §2, §3

With `O=C1NC[C@H](Cc2ccccc2)N(C[C@@H]2CCCN2C[C@@H](CC2CCCCC2)N2C[C@H](Cc3ccc(O)cc3)N(CCc3ccccc3)C(=O)C2=O)C1=O` [Compound 2155-14, (S)-1((R)-1((S)-2-(((S)-6-benzyl-2,3-dioxopiperazin-1-yl)methyl)pyrrolidin-1-yl)-3-cyclohexylpropan-2-yl)-5-(4-hydroxybenzyl)-4-phenethylpiperazine-2,3-dione], in assay [1], the “protection of hnRNPA2/B1 from pronase” value was “protects these proteins from pronase proteolysis”. Besides, the “protection of hnRNPH2 from pronase” value in assay [2] is “protects these proteins from pronase proteolysis”. Also, in assay [3], the “protection of DDX1 from pronase” value is on record as “protects these proteins from pronase proteolysis”. Further, in assay [4] (100 μM, 1:1,000 pronase), the “DARTS-LC-MS/MS identification of protected band” value is on record as “Lamin A/C was the protein with the highest score”. Also, in assay [4] (WM266-4 lysates, western blot), the “protection of lamin A/C from pronase” value is given as “protects these proteins from pronase proteolysis”.
